Active and inactive are the calls of the source. The calls are words filed in the database; no cut-off is given here.
Experiments:
NHDF [1] = experiment: Cytotoxicity against human HDF cells assessed as reduction in cell viability at 10 uM incubated for 24 hrs by MTT assay; assay type: toxicity, cell-based
NHDF [2] = experiment: Antioxidant activity in UV-B irradiation induced human HDF cells assessed as decrease in ROS level at 25 uM incubated for 6 hrs by fluorescence microscopy; assay type: functional, cell-based
NHDF [3] = experiment: Cytoprotective activity against UV-B irradiation induced human HDF cells assessed as increase in cell viability at 10 uM incubated for 24 hrs by MTT assay; assay type: functional
NHDF [4] = experiment: Cytoprotective activity against human HDF cells assessed as increase in cell viability at 10 uM incubated for 24 hrs by MTT assay; assay type: functional
NHDF [5] = experiment: Cytoprotective activity against UV-B irradiation induced human HDF cells assessed as increase in cell viability at 25 uM incubated for 24 hrs by MTT assay; assay type: functional
NHDF [6] = experiment: Antiapoptotic activity in UV-B irradiation induced human HDF cells assessed as upregulation of catalase expression level at 50 uM incubated for 24 hrs by western blot analysis; assay type: functional, cell-based
NHDF [7] = experiment: Antiapoptotic activity in UV-B irradiation induced human HDF cells assessed as upregulation of procollagen-1 expression level at 10 to 25 uM incubated for 24 hrs by western blot analysis; assay type: functional, cell-based; conditions: dose 10-25 µM
NHDF [8] = experiment: Antiapoptotic activity in UV-B irradiation induced human HDF cells assessed as downregulation of MMP1 expression level at 10 to 25 uM incubated for 24 hrs by western blot analysis; assay type: functional, cell-based; conditions: dose 10-25 µM
NHDF [9] = experiment: Antiapoptotic activity in UV-B irradiation induced human HDF cells assessed as upregulation of catalase expression level at 10 to 25 uM incubated for 24 hrs by western blot analysis; assay type: functional, cell-based; conditions: dose 10-25 µM
NHDF [10] = experiment: Antioxidant activity in UV-B irradiation induced human HDF cells assessed as decrease in ROS level at 10 to 25 uM incubated for 6 hrs by fluorescence microscopy; assay type: functional, cell-based; conditions: dose 10-25 µM, DDE = dose-dependent effect
NHDF [11] = experiment: Antiapoptotic activity in UV-B irradiation induced human HDF cells assessed as decrease in mitochondrial membrane potential loss at 10 to 25 uM incubated for 24 hrs by JC-9 staining fluorescence microscopy; assay type: functional, cell-based; conditions: dose 10-25 µM, DDE = dose-dependent effect

| SMILES | Activity (NHDF [1]) | Activity (NHDF [4]) | other results |
| --- | --- | --- | --- |
| CCOc1cccc(/C=C2\C[C@]3(C)[C@H]4C(=O)C=C5[C@@H]6C[C@@](C)(C(=O)O)CC[C@]6(C)CC[C@@]5(C)[C@]4(C)CC[C@H]3C(C)(C)C2=O)c1 | 35.7% |  |  |
| O=C1O[C@H]([C@@H](O)CO)C(O)=C1O |  |  | Activity (NHDF [2]): Active |
| COc1ccccc1/C=C1\C[C@]2(C)[C@H]3C(=O)C=C4[C@@H]5C[C@@](C)(C(=O)O)CC[C@]5(C)CC[C@@]4(C)[C@]3(C)CC[C@H]2C(C)(C)[C@H]1O |  | 114.5% | Activity (NHDF [3]): 6% |
| CC1(C)[C@@H](O)/C(=C/c2cccc3ccccc23)C[C@]2(C)[C@H]3C(=O)C=C4[C@@H]5C[C@@](C)(C(=O)O)CC[C@]5(C)CC[C@@]4(C)[C@]3(C)CC[C@@H]12 |  | 110.1% |  |
| CC1(C)[C@@H](O)/C(=C/c2ccccc2)C[C@]2(C)[C@H]3C(=O)C=C4[C@@H]5C[C@@](C)(C(=O)O)CC[C@]5(C)CC[C@@]4(C)[C@]3(C)CC[C@@H]12 | 7.4% |  |  |
| CSc1ccc(/C=C2\C[C@]3(C)[C@H]4C(=O)C=C5[C@@H]6C[C@@](C)(C(=O)O)CC[C@]6(C)CC[C@@]5(C)[C@]4(C)CC[C@H]3C(C)(C)[C@H]2O)cc1 |  | 109.5% | Activity (NHDF [5]): 12% |
| COc1ccc(/C=C2\C[C@]3(C)[C@H]4C(=O)C=C5[C@@H]6C[C@@](C)(C(=O)O)CC[C@]6(C)CC[C@@]5(C)[C@]4(C)CC[C@H]3C(C)(C)C2=O)c(Br)c1O | 10% |  |  |
| CC1(C)[C@@H](O[C@H]2O[C@H](C(=O)O)[C@@H](O)[C@H](O)[C@H]2O[C@@H]2O[C@H](C(=O)O)[C@@H](O)[C@H](O)[C@H]2O)CC[C@]2(C)[C@H]3C(=O)C=C4[C@@H]5C[C@@](C)(C(=O)O)CC[C@]5(C)CC[C@@]4(C)[C@]3(C)CC[C@@H]12 |  |  | Activity (NHDF [6]): Active |
| COc1cc(Br)c(/C=C2\C[C@]3(C)[C@H]4C(=O)C=C5[C@@H]6C[C@@](C)(C(=O)O)CC[C@]6(C)CC[C@@]5(C)[C@]4(C)CC[C@H]3C(C)(C)[C@H]2O)cc1O | 10.3% |  |  |
| CC1(C)C(=O)/C(=C/c2ccncc2)C[C@]2(C)[C@H]3C(=O)C=C4[C@@H]5C[C@@](C)(C(=O)O)CC[C@]5(C)CC[C@@]4(C)[C@]3(C)CC[C@@H]12 | 8.3% |  |  |
| CC1(C)[C@@H](O)/C(=C/c2cccc(F)c2)C[C@]2(C)[C@H]3C(=O)C=C4[C@@H]5C[C@@](C)(C(=O)O)CC[C@]5(C)CC[C@@]4(C)[C@]3(C)CC[C@@H]12 | 4.4% |  |  |
| CCc1ccc(/C=C2\C[C@]3(C)[C@H]4C(=O)C=C5[C@@H]6C[C@@](C)(C(=O)O)CC[C@]6(C)CC[C@@]5(C)[C@]4(C)CC[C@H]3C(C)(C)C2=O)cc1 | 28.8% |  |  |
| COc1ccc(/C=C2\C[C@]3(C)[C@H]4C(=O)C=C5[C@@H]6C[C@@](C)(C(=O)O)CC[C@]6(C)CC[C@@]5(C)[C@]4(C)CC[C@H]3C(C)(C)C2=O)cc1 | 11.5% |  |  |
| Cc1ccc(/C=C2\C[C@]3(C)[C@H]4C(=O)C=C5[C@@H]6C[C@@](C)(C(=O)O)CC[C@]6(C)CC[C@@]5(C)[C@]4(C)CC[C@H]3C(C)(C)C2=O)cc1 | 30.5% |  |  |
| CC1(C)[C@@H](O)/C(=C/c2ccncc2)C[C@]2(C)[C@H]3C(=O)C=C4[C@@H]5C[C@@](C)(C(=O)O)CC[C@]5(C)CC[C@@]4(C)[C@]3(C)CC[C@@H]12 | 3.2% |  |  |
| CC1(C)C(=O)/C(=C/c2ccc(Cl)cc2)C[C@]2(C)[C@H]3C(=O)C=C4[C@@H]5C[C@@](C)(C(=O)O)CC[C@]5(C)CC[C@@]4(C)[C@]3(C)CC[C@@H]12 |  | 113.9% |  |
| CC1(C)C(=O)/C(=C/c2ccccc2)C[C@]2(C)[C@H]3C(=O)C=C4[C@@H]5C[C@@](C)(C(=O)O)CC[C@]5(C)CC[C@@]4(C)[C@]3(C)CC[C@@H]12 | 11.5% |  |  |

| SMILES | Activity (NHDF [1]) | Activity (NHDF [4]) | other results |
| --- | --- | --- | --- |
| COc1ccc(/C=C2\C[C@]3(C)[C@H]4C(=O)C=C5[C@@H]6C[C@@](C)(C(=O)O)CC[C@]6(C)CC[C@@]5(C)[C@]4(C)CC[C@H]3C(C)(C)[C@H]2O)c(F)c1 |  | 106.7% | Activity (NHDF [7]): Active; Activity (NHDF [8]): Active; Activity (NHDF [3]): 8.3%; Activity (NHDF [5]): 19.5%; Activity (NHDF [9]): Active; Activity (NHDF [10]): Dde; Activity (NHDF [11]): Dde |
| COc1ccc(/C=C2\C[C@]3(C)[C@H]4C(=O)C=C5[C@@H]6C[C@@](C)(C(=O)O)CC[C@]6(C)CC[C@@]5(C)[C@]4(C)CC[C@H]3C(C)(C)C2=O)c(F)c1 | 19.1% |  |  |
| CC1(C)[C@@H](O)CC[C@]2(C)[C@H]3C(=O)C=C4[C@@H]5C[C@@](C)(C(=O)O)CC[C@]5(C)CC[C@@]4(C)[C@]3(C)CC[C@@H]12 [ENOXOLONE] |  | 106.4% | Activity (NHDF [3]): 1%; Activity (NHDF [5]): 17% |
| CC1(C)C(=O)/C(=C/c2ccc(Br)cc2)C[C@]2(C)[C@H]3C(=O)C=C4[C@@H]5C[C@@](C)(C(=O)O)CC[C@]5(C)CC[C@@]4(C)[C@]3(C)CC[C@@H]12 | 17.5% |  |  |
| CC1(C)[C@@H](O)/C(=C/c2ccc(Br)cc2)C[C@]2(C)[C@H]3C(=O)C=C4[C@@H]5C[C@@](C)(C(=O)O)CC[C@]5(C)CC[C@@]4(C)[C@]3(C)CC[C@@H]12 |  | 103.5% |  |
| COc1ccc(/C=C2\C[C@]3(C)[C@H]4C(=O)C=C5[C@@H]6C[C@@](C)(C(=O)O)CC[C@]6(C)CC[C@@]5(C)[C@]4(C)CC[C@H]3C(C)(C)[C@H]2O)cc1 |  | 112.5% |  |
| Cc1ccc(/C=C2\C[C@]3(C)[C@H]4C(=O)C=C5[C@@H]6C[C@@](C)(C(=O)O)CC[C@]6(C)CC[C@@]5(C)[C@]4(C)CC[C@H]3C(C)(C)C2=O)s1 | 12.2% |  |  |
| Cc1ccc(/C=C2\C[C@]3(C)[C@H]4C(=O)C=C5[C@@H]6C[C@@](C)(C(=O)O)CC[C@]6(C)CC[C@@]5(C)[C@]4(C)CC[C@H]3C(C)(C)[C@H]2O)s1 |  | 101.1% |  |
| COc1ccccc1/C=C1\C[C@]2(C)[C@H]3C(=O)C=C4[C@@H]5C[C@@](C)(C(=O)O)CC[C@]5(C)CC[C@@]4(C)[C@]3(C)CC[C@H]2C(C)(C)C1=O | 5.9% |  |  |
| CSc1ccc(/C=C2\C[C@]3(C)[C@H]4C(=O)C=C5[C@@H]6C[C@@](C)(C(=O)O)CC[C@]6(C)CC[C@@]5(C)[C@]4(C)CC[C@H]3C(C)(C)C2=O)cc1 | 8.4% |  |  |
| CC1(C)C(=O)/C(=C/c2cccc3ccccc23)C[C@]2(C)[C@H]3C(=O)C=C4[C@@H]5C[C@@](C)(C(=O)O)CC[C@]5(C)CC[C@@]4(C)[C@]3(C)CC[C@@H]12 | 11.5% |  |  |
| CCOc1cccc(/C=C2\C[C@]3(C)[C@H]4C(=O)C=C5[C@@H]6C[C@@](C)(C(=O)O)CC[C@]6(C)CC[C@@]5(C)[C@]4(C)CC[C@H]3C(C)(C)[C@H]2O)c1 |  | 100.1% |  |
| COc1ccc(/C=C2\C[C@]3(C)[C@H]4C(=O)C=C5[C@@H]6C[C@@](C)(C(=O)O)CC[C@]6(C)CC[C@@]5(C)[C@]4(C)CC[C@H]3C(C)(C)[C@H]2O)c(Br)c1O | 20.2% |  |  |
| CCc1ccc(/C=C2\C[C@]3(C)[C@H]4C(=O)C=C5[C@@H]6C[C@@](C)(C(=O)O)CC[C@]6(C)CC[C@@]5(C)[C@]4(C)CC[C@H]3C(C)(C)[C@H]2O)cc1 |  | 114.5% |  |
| COc1cc(Br)c(/C=C2\C[C@]3(C)[C@H]4C(=O)C=C5[C@@H]6C[C@@](C)(C(=O)O)CC[C@]6(C)CC[C@@]5(C)[C@]4(C)CC[C@H]3C(C)(C)C2=O)cc1O |  | 104.7% | Activity (NHDF [3]): 3% |
| CC1(C)C(=O)CC[C@]2(C)[C@H]3C(=O)C=C4[C@@H]5C[C@@](C)(C(=O)O)CC[C@]5(C)CC[C@@]4(C)[C@]3(C)CC[C@@H]12 | 5.2% |  |  |
| CC1(C)C(=O)/C(=C/c2cccc(F)c2)C[C@]2(C)[C@H]3C(=O)C=C4[C@@H]5C[C@@](C)(C(=O)O)CC[C@]5(C)CC[C@@]4(C)[C@]3(C)CC[C@@H]12 | 6.5% |  |  |
